From US4956367A, “2-amino-4-morpholino-6-propyl-1,3,5-triazines” (U C B S.A., priority 1988, dated 1990)

Experiments:
Toxicity (Irwin's test) = format: in vivo
Method: Progressive doses of the compound to be tested are administered intraperitoneally to groups of three mice until the lethal dose is reached (dose which causes the death of two animals out of three within 48 hours).

[1] = system: effects of scopolamine on the band from 6.4 to 9.6 Hz in the EEG; experiment: Inhibition of the effects of scopolamine on the electroencephalogram (EEG); format: in vivo, male albino Sprague-Dawley rats; set-up: inhibition: dose or concentration left out as unconfirmed; settings: Rattus norvegicus, ip; read-out: Inhibition (percentage of reduction in the increase in the intensity of the band from 6.4 to 9.6 Hz)
Method: Male albino Sprague-Dawley SPF rats (160 to 200 g) are used in this test. When the animals are 3 months old, 5 cortical electrodes are implanted permanently, aseptically and under a general anesthesia: one inert electrode, one left and one right frontal electrode, and one left and one right occipital electrode (P. ETEVENON, loc.cit.). The test is carried out when the animals are about 15 months old. In the meantime, the animals are kept in individual cages. They are given water and food ad libitum and are subjected to a regular daily cycle comprising a period of darkness between 6 o'clock in the evening and 6 o'clock in the morning. At the same time, the animals are progressively acclimatized to the cages of the sound-proof cabin which they will subsequently occupy for recording of the electroencephalograms, as well as to the experimental conditions, by intraperitoneal administration of placebo. The products are administered immediately before the EEG is recorded. The rats are divided into groups of 8 animals and 16 samples of the EEG spectra are recorded over 5 seconds (two EEG spectra per animal). The spectra obtained are then analyzed by computer (rapid Fourier transform), which enables the average of the 16 measurements performed to be determined for each group and the overall intensity of the EEG spectrum and the distribution of this intensity (in %) in the various frequency bands to be deduced for each animal. This operation (recording of the spectra) is repeated 9 times (total

## CCCc1nc(NC(C)=O)nc(N2CCOCC2)n1
Toxicity (Irwin's test); mice, intraperitoneal
  Lethal dose (death of two animals out of three within 48 hours): 905 mg/kg

## CCCc1nc(N2CCOCC2)nc(N(C)C(C)=O)n1
Toxicity (Irwin's test); mice, intraperitoneal
  Lethal dose (death of two animals out of three within 48 hours): 947 mg/kg

## CCCc1nc(NCCO)nc(N2CCOCC2)n1 [Compound 1, 2-[(4-morpholino-6-propyl-1,3,5-triazin-2-yl)amino]-ethanol]
Toxicity (Irwin's test); mice, intraperitoneal
  Lethal dose (death of two animals out of three within 48 hours): 802 mg/kg
[1]
  inhibition: 52%

## CCCc1nc(NO)nc(N2CCOCC2)n1 [Compound 2, 2-(hydroxyamino)-4-morpholino-6-propyl-1,3,5-triazine]
Toxicity (Irwin's test); mice, intraperitoneal
  Lethal dose (death of two animals out of three within 48 hours): 718 mg/kg

## CCCc1nc(NCCCO)nc(N2CCOCC2)n1 [Compound 3]
Toxicity (Irwin's test); mice, intraperitoneal
  Lethal dose (death of two animals out of three within 48 hours): 844 mg/kg

## CCCc1nc(NCCCCO)nc(N2CCOCC2)n1 [Compound 4]
Toxicity (Irwin's test); mice, intraperitoneal
  Lethal dose (death of two animals out of three within 48 hours): 886 mg/kg

## CCCc1nc(NCC(C)O)nc(N2CCOCC2)n1 (centres unmarked) [Compound 5]
Toxicity (Irwin's test); mice, intraperitoneal
  Lethal dose (death of two animals out of three within 48 hours): 563 mg/kg

## CCCc1nc(NCC(O)CC)nc(N2CCOCC2)n1 (centres unmarked) [Compound 6]
Toxicity (Irwin's test); mice, intraperitoneal
  Lethal dose (death of two animals out of three within 48 hours): 886 mg/kg

## CCCc1nc(NC(CC)CO)nc(N2CCOCC2)n1 (centres unmarked) [Compound 7]
Toxicity (Irwin's test); mouse, in vivo, ip
  Lethal dose (death of two animals out of three within 48 hours): 886 mg/kg
[1]
  inhibition: 50%

## CCCc1nc(NC(C)(C)CO)nc(N2CCOCC2)n1 [Compound 8]
Toxicity (Irwin's test); mice, intraperitoneal
  Lethal dose (death of two animals out of three within 48 hours): 886 mg/kg

## CCCc1nc(N(C)CCO)nc(N2CCOCC2)n1 [Compound 9]
Toxicity (Irwin's test); mouse, in vivo, ip
  Lethal dose (death of two animals out of three within 48 hours): 844 mg/kg
[1]
  inhibition: 53.3%

## CCCc1nc(NCCOC)nc(N2CCOCC2)n1 [Compound 10, 2-[(2-methoxyethyl)amino]-4-morpholino-6-propyl-1,3,5-triazine]
Toxicity (Irwin's test); mice, intraperitoneal
  Lethal dose (death of two animals out of three within 48 hours): 844 mg/kg

## CCCc1nc(NCC(O)CO)nc(N2CCOCC2)n1 (centres unmarked) [Compound 11]
Toxicity (Irwin's test); mice, intraperitoneal
  Lethal dose (death of two animals out of three within 48 hours): 892 mg/kg

## CCCc1nc(NC(CO)(CO)CO)nc(N2CCOCC2)n1 [Compound 12]
Toxicity (Irwin's test); mice, intraperitoneal
  Lethal dose (death of two animals out of three within 48 hours): 982 mg/kg

## CCCc1nc(NC(C)(CO)CO)nc(N2CCOCC2)n1 [Compound 13]
Toxicity (Irwin's test); mice, intraperitoneal
  Lethal dose (death of two animals out of three within 48 hours): 934 mg/kg

## CCCc1nc(N2CCOCC2)nc(N(CCO)Cc2ccccc2)n1 [Compound 14]
Toxicity (Irwin's test); mice, intraperitoneal
  Lethal dose (death of two animals out of three within 48 hours): > 1073 mg/kg

## CCCc1nc(NC(CO)C(O)c2ccccc2)nc(N2CCOCC2)n1 (centres unmarked) [Compound 15]
Toxicity (Irwin's test); mice, intraperitoneal
  Lethal dose (death of two animals out of three within 48 hours): 1121 mg/kg

## CCCc1nc(NC[C@H](C)O)nc(N2CCOCC2)n1 [Compound 16, (S)-3-[(4-morpholino-6-propyl-1,3,5-triazin-2-yl)amino]-2-propanol]
Toxicity (Irwin's test); mice, intraperitoneal
  Lethal dose (death of two animals out of three within 48 hours): 844 mg/kg

## CCCc1nc(NC[C@@H](C)O)nc(N2CCOCC2)n1 [Compound 17]
Toxicity (Irwin's test); mice, intraperitoneal
  Lethal dose (death of two animals out of three within 48 hours): 844 mg/kg

## CCCc1nc(NCC2(O)CCCCC2)nc(N2CCOCC2)n1 [Compound 18]
Toxicity (Irwin's test); mice, intraperitoneal
  Lethal dose (death of two animals out of three within 48 hours): 1007 mg/kg

## CCCc1nc(N2CCOCC2)nc(N2CCCC2CO)n1 (centres unmarked) [Compound 19]
Toxicity (Irwin's test); mice, intraperitoneal
  Lethal dose (death of two animals out of three within 48 hours): 1031 mg/kg

## CCCc1nc(NN(C)C)nc(N2CCOCC2)n1 [Compound 20, 2-(2,2-dimethylhydrazino)-4-morpholino-6-propyl-1,3,5-triazine]
Toxicity (Irwin's test); mice, intraperitoneal
  Lethal dose (death of two animals out of three within 48 hours): 799 mg/kg
[1]
  inhibition: 66.7%

## CCCc1nc(NC(C)=O)nc(N2CCOCC2)n1 [Compound 21a, N-(4-Morpholino-6-propyl-1,3,5-triazin-2-yl)-acetamide]
Toxicity (Irwin's test); mice, intraperitoneal
  Lethal dose (death of two animals out of three within 48 hours): 996 mg/kg
[1]
  inhibition: 100%

## CCCc1nc(NC(=O)c2ccccc2)nc(N2CCOCC2)n1.Cl [Compound 22, N-(4-morpholino-6-propyl-1,3,5-triazin-2-yl)-benzamide hydrochloride]
Toxicity (Irwin's test); mice, intraperitoneal
  Lethal dose (death of two animals out of three within 48 hours): 1091 mg/kg
[1]
  inhibition: 66.7%

## CCCc1nc(NC(=O)Cc2ccccc2)nc(N2CCOCC2)n1 [Compound 23]
Toxicity (Irwin's test); mice, intraperitoneal
  Lethal dose (death of two animals out of three within 48 hours): > 1024 mg/kg

## CCCc1nc(NC(=O)C(C)C)nc(N2CCOCC2)n1 [Compound 24]
Toxicity (Irwin's test); mice, intraperitoneal
  Lethal dose (death of two animals out of three within 48 hours): 880 mg/kg

## CCCc1nc(N2CCOCC2)nc(N(C)C(C)=O)n1 [Compound 25a]
Toxicity (Irwin's test); mouse, in vivo, ip
  Lethal dose (death of two animals out of three within 48 hours): 838 mg/kg
[1]
  inhibition: 46.7%

## CCCc1nc(N2CCOCC2)nc(N(C)C(=O)C(C)C)n1 [Compound 26]
Toxicity (Irwin's test); mouse, in vivo, ip
  Lethal dose (death of two animals out of three within 48 hours): 922 mg/kg
[1]
  inhibition: 55.6%

## CCCc1nc(N2CCOCC2)nc(N(C)C(=O)c2ccccc2)n1.Cl [Compound 27, N-methyl-N-(4-morpholino-6-propyl-1,3,5-triazin-2-yl)-benzamide hydrochloride]
Toxicity (Irwin's test); mice, intraperitoneal
  Lethal dose (death of two animals out of three within 48 hours): 1133 mg/kg
[1]
  inhibition: 93.8%

## CCCc1nc(NC(=O)Oc2ccccc2)nc(N2CCOCC2)n1 [Compound 28, phenyl (4-morpholino-6-propyl-1,3,5-triazin-2-yl)carbamate]
Toxicity (Irwin's test); mice, intraperitoneal
  Lethal dose (death of two animals out of three within 48 hours): > 1030 mg/kg

## CCCc1nc(NC(=O)c2ccc(Cl)cc2)nc(N2CCOCC2)n1 [Compound 29]
Toxicity (Irwin's test); mice, intraperitoneal
  Lethal dose (death of two animals out of three within 48 hours): 398 mg/kg

## CCCc1nc(N2CCOCC2)nc(N(C)C(=O)c2ccc(Cl)cc2)n1 [Compound 30]
Toxicity (Irwin's test); mice, intraperitoneal
  Lethal dose (death of two animals out of three within 48 hours): 1125 mg/kg

## CCCc1nc(NC(=O)c2ccc(OC)cc2)nc(N2CCOCC2)n1 [Compound 31]
Toxicity (Irwin's test); mice, intraperitoneal
  Lethal dose (death of two animals out of three within 48 hours): 511 mg/kg

## CCCc1nc(N2CCOCC2)nc(N(C)C(=O)c2ccc(OC)cc2)n1 [Compound 32]
Toxicity (Irwin's test); mice, intraperitoneal
  Lethal dose (death of two animals out of three within 48 hours): 1222 mg/kg

## CCCc1nc(NC(=O)c2ccc(C)cc2)nc(N2CCOCC2)n1 [Compound 33]
Toxicity (Irwin's test); mice, intraperitoneal
  Lethal dose (death of two animals out of three within 48 hours): 1132 mg/kg

## CCCc1nc(N2CCOCC2)nc(N(C)C(=O)c2ccc(C)cc2)n1 [Compound 34]
Toxicity (Irwin's test); mice, intraperitoneal
  Lethal dose (death of two animals out of three within 48 hours): 1174 mg/kg

## CCCc1nc(N2CCOCC2)nc(N(C)C(=O)c2ccc(OC)c(OC)c2)n1 [Compound 35]
Toxicity (Irwin's test); mice, intraperitoneal
  Lethal dose (death of two animals out of three within 48 hours): 401 mg/kg

## CCCc1nc(NC(=O)c2ccc(C)c(C)c2)nc(N2CCOCC2)n1 [Compound 36]
Toxicity (Irwin's test); mice, intraperitoneal
  Lethal dose (death of two animals out of three within 48 hours): 1174 mg/kg

## CCCc1nc(NCCOC(C)=O)nc(N2CCOCC2)n1 [Compound 37, 2-[[2-(acetoxy)ethyl]amino]-4-morpholino-6-propyl-1,3,5-triazine]
Toxicity (Irwin's test); mice, intraperitoneal
  Lethal dose (death of two animals out of three within 48 hours): 928 mg/kg
[1]
  inhibition: 53.3%

## CCCc1nc(NCCOC(=O)C(C)C)nc(N2CCOCC2)n1 [Compound 38]
Toxicity (Irwin's test); mice, intraperitoneal
  Lethal dose (death of two animals out of three within 48 hours): > 1012 mg/kg

## CCCc1nc(NCCOC(=O)c2ccccc2)nc(N2CCOCC2)n1 [Compound 39]
Toxicity (Irwin's test); mice, intraperitoneal
  Lethal dose (death of two animals out of three within 48 hours): > 1114 mg/kg

## CCCc1nc(NCCOC(=O)Cc2ccccc2)nc(N2CCOCC2)n1 [Compound 40]
Toxicity (Irwin's test); mice, intraperitoneal
  Lethal dose (death of two animals out of three within 48 hours): 1157 mg/kg

## CCCc1nc(NC(=O)N(C)C)nc(N2CCOCC2)n1 [Compound 41, N,N-Dimethyl-N'-(4-morpholino-6-propyl-1,3.5-triazin-2-yl)-urea]
Toxicity (Irwin's test); mice, intraperitoneal
  Lethal dose (death of two animals out of three within 48 hours): 294 mg/kg

## CCCc1nc(NCCOC(N)=O)nc(N2CCOCC2)n1 [Compound 42, 2-[[2-[(Aminocarbonyl)oxy]ethyl]amino]-4-morpholino-6-propyl-1,3,5-triazine]
Toxicity (Irwin's test); mice, intraperitoneal
  Lethal dose (death of two animals out of three within 48 hours): > 931 mg/kg

## CCCc1nc(N2CCOCC2)nc(N(CCOC(C)=O)C(C)=O)n1 [Compound 43, N-[2-(Acetoxy)ethyl]-N-(4-morpholino-6-propyl-1,3,5-triazin-2-yl)-acetamide]
Toxicity (Irwin's test); mice, intraperitoneal
  Lethal dose (death of two animals out of three within 48 hours): 351 mg/kg
[1]
  inhibition: 77.8%
